The record followed here is patent US11306098B2, “Substituted pyrrolo[1,2-a]pyrazines and pyrrolo[1,2-a][1,4]diazepines as TREX1 inhibitors” (VENENUM BIODESIGN, LLC, priority 2019, dated 2022).

Experiment [1] has as its target human TREX1 (Homo sapiens (Human), UniProt Q9NSU2). Briefly: TREX1 Exonuclease Assay (human enzyme). Format: biochemical. Conditions: human TREX1 0.5 nM, FAM/BHQ1-labeled DNA oligonucleotide. The method in brief:
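Human TREX1 (aa 55-297, 0.5 nM) or murine TREX1 (aa 1-242, 1 nM) preincubated 30 min with compound (11-point, 3-fold), then 500 nM FAM/BHQ1-quenched DNA oligo added; 45 min at room temperature in pH 7.5 Tris buffer with 5 mM MgCl2, EDTA-stopped. Fluorescence (ex 485/em 535 nm) fit to four-parameter curve for IC50.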

In experiment [2] the target is cleaved human TREX1 (Homo sapiens (Human), UniProt Q9NSU2). Briefly: TREX1 Thermal Shift Binding Assay (human). Conditions: assay buffer, 100 μM compound, 5 μM TREX1; read-out: Thermal shift cleaved human TREX1, (ΔTm ° C.) Assay buffer. As to the method:
(§1) Example B is a protein thermal shift assay used to assess the binding of TREX1 inhibitors to TREX1 protein. In this assay, TREX1 protein unfolding with increasing temperature was measured in the presence and absence of TREX1 inhibitors by following the increase in fluorescence of a thiol-reactive dye (e.g BODIPY FL-cystine) as it reacts with exposed TREX1 cysteine residues. The assay was conducted using human (SEQ ID NO: 1), or murine (SEQ ID NO: 2) TREX1 protein constructs.
(§2) The thermal shift assays used recombinant protein corresponding to human (SEQ ID NO: 1) and murine (SEQ ID NO: 2) TREX1. The protein encoding plasmid contained a N-terminal MBP (maltose binding protein) tag followed by the TREX1 coding sequence within the pMAL-c5E vector. The plasmid was transfected into a BL21 (DE3) E. coli expression strain. Protein was purified from the bacterial lysate using an Amylose resin column. The MBP tag was cleaved from the purified protein using recombinant enterokinase (EMD Millipore #69066-3). The cleaved TREX1 protein was further purified on a Q-Sepharose column followed by a heparin column.
(§3) Binding of compounds to both human and murine TREX1 were measured by protein thermal shift assays. (Huynh K, Partch C L. Current Protocols in Protein Science: Analysis of protein stability and ligand interactions by thermal shift assay. Current protocols in protein science/editorial board, John E Coligan. [et al]. 2015; 79:28.9.1-28.9.14. doi:10.1002/0471140864.ps2809s79.). Thermal shift assays were conducted in sealed 96-well PCR plates containing 5 μM TREX1 protein, 100 μM compound, and 2 μM BODIPY FL-cystine (Sigma) in either 20 μL assay buffer (20 mM Tris, 7.5, 5 mM MgCl2, 0.002% Triton X-100) or 20 μL phosphate buffered saline (PBS). Using a RT-qPCR machine (Mx3005P, Stratagene) changes in fluorescence (excitation at 492 nm and emission at 516 nm) were monitored as temperature was increased from 25° C. to 96° C. at a rate of 1° C. every 2 minutes. Tm values were calculated from the first derivative plot of fluorescence intensity versus temperature. The results shown in Table 6 indicate the examples bind to human TREX1 and murine TREX1. ND indicates assay was not done.

Experiment [3] deals with cleaved mouse TREX1 (Mus musculus (Mouse), UniProt Q91XB0). Briefly: TREX1 Thermal Shift Binding Assay (mouse). The conditions noted are these: PBS, 100 μM compound, 5 μM TREX1; read-out: Thermal shift cleaved mouse TREX1, (ΔTm ° C.) PBS. As to the method: as §1, §2, §3
Sequence of cleaved mouse TREX1 (Q91XB0 1-242): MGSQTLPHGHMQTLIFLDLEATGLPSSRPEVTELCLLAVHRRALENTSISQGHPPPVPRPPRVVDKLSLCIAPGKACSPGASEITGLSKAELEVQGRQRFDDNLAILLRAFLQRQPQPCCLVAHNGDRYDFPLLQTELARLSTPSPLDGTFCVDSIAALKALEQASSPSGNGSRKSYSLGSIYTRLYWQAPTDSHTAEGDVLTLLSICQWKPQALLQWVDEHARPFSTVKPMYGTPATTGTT

Sequence of human TREX1 (Q9NSU2 1-242): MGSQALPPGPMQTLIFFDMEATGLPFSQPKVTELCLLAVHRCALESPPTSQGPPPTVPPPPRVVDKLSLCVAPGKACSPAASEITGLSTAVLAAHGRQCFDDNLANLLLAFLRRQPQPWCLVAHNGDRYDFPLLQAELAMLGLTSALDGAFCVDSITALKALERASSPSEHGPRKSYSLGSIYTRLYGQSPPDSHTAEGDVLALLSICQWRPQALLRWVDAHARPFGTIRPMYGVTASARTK
Sequence of cleaved human TREX1 (Q9NSU2 1-242): as above

Broadly, the IC50 is the midpoint of a concentration-inhibition curve. Low values mean higher potency, high ones lower potency. With `N[C@@H]1C[C@H]2C(=O)N([C@H](CCC(=O)O)C(=O)NCc3ccc(Cl)c(Cl)c3)CCC(CCc3ccccc3)N2C1` (stereo partly drawn) [Example 14B], the IC50 in experiment [1] was under 1000 nM. Moreover, the ΔTm at 100 µM in experiment [2] and in experiment [3] was over 8 °C each time.
